Among the data in ChEMBL document CHEMBL1123821, “Synthesis of 5-chloro-5,8-dideaza analogues of folic acid and aminopterin targeted for colon adenocarcinoma” (J Med Chem, 1987) are IC50 values, retold here.

Type in all cases: functional, cell-based
One test relates to HuTu80. The test is described as follows: Inhibition of cell growth against HuTu 80 human gastrointestinal adenocarcinoma cell lines in vitro.
In another test the test system is HT-29. The test is described as follows: Inhibition of cell growth against HT-29 human gastrointestinal adenocarcinoma cell lines in vitro.
Another test concerns SW480. In words: Inhibition of cell growth against SW480 human gastrointestinal adenocarcinoma cell lines in vitro.
Another test deals with WiDr. In words: Inhibition of cell growth against WIDR human gastrointestinal adenocarcinoma cell lines in vitro.

By IC50 is commonly meant the concentration that inhibits the measured activity by half. Low readings indicate inhibition by little substance, high ones a need for much substance. Molecule `Cc1c(NCc2ccc(C(=O)NC(CCC(=O)O)C(=O)O)cc2)ccc2nc(N)nc(O)c12` (stereo unspecified) registered an IC50 in the test on HuTu80 of 4000 nM.

With `Cc1c(CNc2ccc(C(=O)NC(CCC(=O)O)C(=O)O)cc2)ccc2nc(N)nc(N)c12` (stereo unspecified), the IC50 with HT-29 was determined as 3 nM; with HuTu80 it was 3.4 nM; with SW480, 5 nM; in the test on WiDr, 5 nM.

Regarding `Nc1nc(=O)c2cc(NCc3ccc(C(=O)NC(CCC(=O)O)C(=O)O)cc3)ccc2[nH]1` (stereo unspecified), the half-maximal inhibitory concentration (IC50) was 1700 nM in the test on HT-29, 4500 nM in the test on HuTu80, 4500 nM in the test on SW480 and 4200 nM with WiDr.

Regarding `Cc1c(NCc2ccc(C(=O)NC(CCC(=O)O)C(=O)O)cc2)ccc2nc(N)nc(N)c12` (stereo unspecified), the IC50 with HT-29 was 60 nM; in the test on HuTu80, 47 nM; in the test with SW480, 56 nM; with WiDr, 71 nM.

As for `Nc1nc(N)c2c(Cl)c(CNc3ccc(C(=O)NC(CCC(=O)O)C(=O)O)cc3)ccc2n1` (stereo unspecified), the IC50 came to 2.3 nM in the test on HT-29, 1.9 nM with HuTu80, 2 nM in the test on SW480 and 2.1 nM with WiDr.

Turning to `Nc1nc(N)c2c(Cl)c(NCc3ccc(C(=O)NC(CCC(=O)O)C(=O)O)cc3)ccc2n1` (stereo unspecified), the IC50 in the test on HT-29 is 25 nM; in the test on HuTu80, 22 nM; with SW480, 20 nM; with WiDr, 24 nM.

On to `Nc1nc(O)c2c(Cl)c(NCc3ccc(C(=O)NC(CCC(=O)O)C(=O)O)cc3)ccc2n1` (stereo unspecified), for which the IC50 in the test with HT-29 worked out at 6700 nM; in the test on HuTu80, 8500 nM; in the test with SW480, 38000 nM; in the test with WiDr, 11000 nM.

Take `CN(Cc1cnc2nc(N)nc(N)c2n1)c1ccc(C(=O)N[C@@H](CCC(=O)O)C(=O)O)cc1` [METHOTREXATE]: in the test on HuTu80, half-maximal inhibition (IC50) was put at 9 nM.
